From PMC9860787, “Indene-Derived Hydrazides Targeting Acetylcholinesterase Enzyme in Alzheimer’s: Design, Synthesis, and Biological Evaluation” (Pharmaceutics, 2022)
“Also recorded” adds a separate entry of the source.

How the values were obtained:
Antioxidant DPPH assay = conditions: for antioxidant property (in words): DPPH assay, compared to ascorbic acid; for % Free Radicle Scavenging, Mean ± SE: DPPH
Description: The assay was performed by previously mentioned protocol. […] The volume of solution was adjusted to 200 μL using methanol. The 96-well plate was incubated at 37 °C for 25 min on shaking water bath with moderate shaking. The absorbance of reaction mixture was measured at 520 nm wavelength. The reducing percentage (RP) of the DPPH was determined by the equation: RP=100 (A0−Ac)/A0 where A0 was the control or untreated DPPH absorbance, and Ac was the test treated DPPH absorbance. Ascorbic acid was used as the standard for the DPPH assay. The assay was performed in triplicate.

hAChE = target: T1, hAChE (Homo sapiens, UniProt P22303); test: biochemical; conditions: for Selectivity Ratio = (IC50 of BuChE)/(IC50 of AChE): BuChE over AChE; for IC50: Ellman method, triplicate, three independent runs, read-out: IC50 ± SE hAChE
T1 construct: ATCh (derived from human erythrocytes); from tissue; host or cells: human erythrocytes
T1 sequence (P22303 other isoform, or with tags, fused parts or gaps): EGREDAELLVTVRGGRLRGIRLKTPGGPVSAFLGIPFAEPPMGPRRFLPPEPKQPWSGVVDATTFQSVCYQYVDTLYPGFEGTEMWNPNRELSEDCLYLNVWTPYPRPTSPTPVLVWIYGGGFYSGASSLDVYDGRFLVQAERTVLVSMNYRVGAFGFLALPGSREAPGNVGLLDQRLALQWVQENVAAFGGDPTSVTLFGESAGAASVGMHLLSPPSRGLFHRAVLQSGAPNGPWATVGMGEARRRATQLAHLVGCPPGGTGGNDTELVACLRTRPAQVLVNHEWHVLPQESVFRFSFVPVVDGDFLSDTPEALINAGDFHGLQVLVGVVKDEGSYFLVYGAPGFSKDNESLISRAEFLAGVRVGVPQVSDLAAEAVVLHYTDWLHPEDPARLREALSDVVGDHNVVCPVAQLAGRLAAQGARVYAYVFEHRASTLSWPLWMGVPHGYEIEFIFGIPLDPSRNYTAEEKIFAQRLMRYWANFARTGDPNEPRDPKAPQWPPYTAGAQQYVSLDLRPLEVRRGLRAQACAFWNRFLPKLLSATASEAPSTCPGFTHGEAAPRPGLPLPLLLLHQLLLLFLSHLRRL
Description: (§1) Enzyme activities were determined using the Ellman spectrophotometric method. Enzyme substrates acetylthiocholine iodide (ATCh) and propionylthiocholine iodide (PTCh) were purchased from Sigma-Aldrich, Steinheim, Germany, and thiole reagent 5.5′-dithiobis-2-nitrobenzoic acid (DTNB) from Sigma-Aldrich, St. Louis, MO, USA. Donpezil and were used as reference compounds (purchased from sigma);
(§2) In initial state, ATCh (derived from human erythrocytes) and PTCh (derived from human plasma) were dissolved in water and DTNB in 0.1 M sodium phosphate buffer (pH 7.4). Sulindac analogues were dissolved in water, and all further dilutions were made in water. Final concentrations of synthetics were in the range of 0.01–200 µM, while substrates were 1.0 mM and 4.0 mM for ATCh and PTCh, respectively. The final dilution of AChE and BChE was 500 and 300 times, respectively. Briefly, 50 µL of AChE (1.00 U mL^−1) or 50 µL of BuChE (0.6 U mL^−1) and 20 µL of the test or standard compounds were incubated in 96 well plates for 30 min at room temperature. […] The IC50 values were calculated using absorbance obtained from the test and standard compounds. The assays were performed in triplicate with three independent runs.

hBuChE = target: T2, hBuChE (Homo sapiens, UniProt P06276); test: biochemical; conditions: Ellman method, triplicate, three independent runs; read-out: IC50 ± SE hBuChE
T2 construct: PTCh (derived from human plasma); from tissue; host or cells: human plasma
Description: as §1, §2

[1] = tested on: SH-SY5Y neuroblastoma cell lines; test: Cell line-based toxicity study, MTT assay; conditions: 72 h
Description: The toxicity of compound SD-30 was evaluated against SH-SY5Y neuroblastoma cell lines by the MTT assay according to the literature procedure with minor modifications. Briefly, the cell lines (density 1 × 10^5 cells/wells) were plated in 96 well plates and incubated for 24 h at 37 °C in CO2 incubator. Various concentrations of SD-30 ([…]) were added, and cells were incubated for 72 h. After that, […] of MTT reagent was added, and the cells were incubated for an additional 2 h. The obtained purple colored formazan crystals were solubilized in […] DMSO. The absorbance was measured at 570 nm, and the % cell viability was calculated. Each treatment was executed in triplicate and data are presented as percentage of the control.
Generally, in vitro cell line studies have been routinely used as these can be helpful in primary optimization and mechanistic investigations before animal-based toxicology studies. The evaluation of the neuroprotection effect of compound SD-30 ([…]) on human neuroblastoma SH-SY5Y cell lines was assessed through MTT (3-(4,5-dimethylthiazol-2-yl)-2,5- diphenyl tetrazolium bromide) assay This cell line is often used in AD due to its human origin and ease of maintenance.

[2] = target: AChE induced Aβ 1-42 aggregation (Homo sapiens, UniProt P22303); assay type: biochemical; conditions: 10 and 20 µM, ThT, 48 h incubation
Chain of AChE induced Aβ 1-42 aggregation (P22303 32-614): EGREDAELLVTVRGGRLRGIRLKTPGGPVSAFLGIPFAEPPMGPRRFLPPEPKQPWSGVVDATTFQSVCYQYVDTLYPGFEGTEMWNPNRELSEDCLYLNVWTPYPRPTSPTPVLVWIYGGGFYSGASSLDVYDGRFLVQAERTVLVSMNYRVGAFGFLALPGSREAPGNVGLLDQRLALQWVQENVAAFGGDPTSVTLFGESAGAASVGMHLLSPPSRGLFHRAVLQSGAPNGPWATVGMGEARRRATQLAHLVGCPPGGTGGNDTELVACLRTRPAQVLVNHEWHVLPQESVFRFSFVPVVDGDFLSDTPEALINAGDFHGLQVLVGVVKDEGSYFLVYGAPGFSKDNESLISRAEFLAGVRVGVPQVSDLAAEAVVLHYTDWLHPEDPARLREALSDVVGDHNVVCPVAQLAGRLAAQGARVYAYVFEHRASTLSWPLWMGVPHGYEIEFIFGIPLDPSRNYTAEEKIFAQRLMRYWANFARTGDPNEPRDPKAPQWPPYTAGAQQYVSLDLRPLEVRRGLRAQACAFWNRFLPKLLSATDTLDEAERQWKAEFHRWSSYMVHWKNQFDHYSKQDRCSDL
Description: Thioflavin T (ThT) assay was performed to determine the inhibition potential of SD-30 against AChE induced Aβ 1-42 aggregation. Aβ 1-42, purchased from Sigma, dissolved in the 10 mM phosphate buffer (PBS) of pH 7.5 to get a stock concentration of […]. The test compounds were dissolved in distilled water and further diluted with PBS. Different proportions of the Aβ 1-42: Inhibitor (1:0.5, 1:10, 1:20) were used in the ThT assay. […] The mixtures were incubated at room temperature for 48 h in the dark. […] The ThT assay was performed in triplicate and in three independent runs.

Row | SMILES | antioxidant property (in words) (Antioxidant DPPH assay) | % Free Radicle Scavenging, Mean ± SE (Antioxidant DPPH assay; 50 µM) [%] | % Free Radicle Scavenging, Mean ± SE (Antioxidant DPPH assay; 100 µM) [%] | Selectivity Ratio = (IC50 of BuChE)/(IC50 of AChE) (hAChE) | IC50 (hAChE) [µM] | IC50 (hBuChE) [µM] | concentration up to which no significant toxicity / cytotoxicity was observed [1] | effect on AChE-induced Aβ1-42 aggregation (in words) [2]
1 | CC1=C(CC(=O)NN=Cc2cccc(O)c2)c2cc(F)ccc2C1=Cc1ccc([S+](C)[O-])cc1 (stereo in doubt) [SD-24, 2-(5-fluoro-2-methyl-1-((E)-4-(methylsulfinyl)benzylidene)-1H-inden-3-yl)-N’-((E)-3-hydroxybenzylidene)acetohydrazide] | reasonable antioxidant property | 17.68 ± 0.478 | 43.61 ± 0.983 | 2.30 | 40.43 ± 0.067 | 92.86 ± 0.066 |  | 
2 | COc1cccc(C=NNC(=O)CC2=C(C)C(=Cc3ccc([S+](C)[O-])cc3)c3ccc(F)cc32)c1 (stereo in doubt) [SD-25, 2-(5-fluoro-2-methyl-1-((E)-4-(methylsulfinyl)benzylidene)-1H-inden-3-yl)-N’-((E)-3-methoxybenzylidene) acetohydrazide] |  | 14.00 ± 0.345 | 40.95 ± 1.101 |  | > 1000 | > 1000 |  | 
3 | CC1=C(CC(=O)NN=Cc2ccc(O)cc2)c2cc(F)ccc2C1=Cc1ccc([S+](C)[O-])cc1 (stereo in doubt) [SD-30, 2-(5-fluoro-2-methyl-1-((E)-4-(methylsulfinyl)benzylidene)-1H-inden-3-yl)-N’-((E)-4-hydroxybenzylidene)acetohydrazide] | reasonable antioxidant properties; also recorded: reasonable antioxidant property | 17.37 ± 0.988 | 45.39 ± 1.036 | 3.50 | 13.9 ± 0.163 | 48.55 ± 0.136 | up to 30 mM | effectively inhibited AChE-induced Aβ aggregation; also recorded: effective on Aβ1-42 aggregation; also recorded: concentration-dependent decrease in the Aβ aggregation
4 | COc1ccccc1C=NNC(=O)CC1=C(C)C(=Cc2ccc([S+](C)[O-])cc2)c2ccc(F)cc21 (stereo in doubt) [SD-31, 2-(5-fluoro-2-methyl-1-((E)-4-(methylsulfinyl)benzylidene)-1H-inden-3-yl)-N’-((E)-2-methoxybenzylidene) acetohydrazide] |  | 12.24 ± 0.222 | 39.39 ± 0.860 |  | 733.16 ± 0.143 | > 1000 |  | 
5 | O=C1O[C@H]([C@@H](O)CO)C(O)=C1O [Ascorbic acid, reference compound] |  | 42.66 ± 1.491 | 76.76 ± 0.708 |  |  |  |  | 
6 | CC1=C(CC(=O)NN=Cc2c(O)cccc2O)c2cc(F)ccc2/C1=C\c1ccc([S+](C)[O-])cc1 (centres unmarked) [SD-40] |  | 28.67 ± 0.422 | 63.42 ± 0.831 | 2.63 | 108.9 ± 0.142 | 286.01 ± 0.143 |  | 
7 | CC1=C(CC(=O)NN=Cc2cccc(O)c2O)c2cc(F)ccc2/C1=C\c1ccc([S+](C)[O-])cc1 (centres unmarked) [SD-42] | reasonable antioxidant property | 30.43 ± 0.299 | 64.98 ± 1.071 | 2.86 | 92.44 ± 0.106 | 264.33 ± 0.068 |  | 
